# “Also recorded” adds a separate entry of the source.
# Tests used:
# [1] = Phase 1 open-label study: coadministration of combined oral contraceptive (EE+LNG) with elagolix sodium, pharmacokinetics, safety and tolerability; format: in vivo, human; settings: healthy premenopausal female subjects
# Experimental: Objective: To evaluate the effect of elagolix on the pharmacokinetics, safety, and tolerability of a single dose of a combined oral contraceptive (COC) containing EE and LNG in healthy premenopausal female subjects. […] [table] […] Diagnosis and Main Criteria for Inclusion: Subjects were premenopausal females, and age was between 18 and 49 years, inclusive. Test Product, Dose/Strength/Concentration, and Mode of Administration: […] EE/LNG 0.02 mg/0.1 mg tablet; All study drugs were administered orally. Duration of Treatment: […] EE/LNG: 0.02 mg/0.1 mg on two separate occasions. Criteria for Evaluation: Pharmacokinetic: Cmax, Tmax, t1/2 and AUC. Safety: Vital signs, physical examinations, laboratory tests, and adverse events. […] The tabulation of the number of subjects with treatment-emergent adverse events also was provided with further breakdowns by severity rating and relationship to study drug.
# [2] = Embryofetal development study in the rat; format: in vivo
# Experimental: (§1) Embryofetal development studies were conducted in the rat and rabbit. Elagolix was administered by oral gavage to pregnant rats (25 animals/dose) at doses of 0, 300, 600 and 1200 mg/kg/day and to rabbits (20 animals/dose) at doses of 0, 100, 150, and 200 mg/kg/day, during the period of organogenesis (gestation day 6-17 in the rat and gestation day 7-20 in the rabbit).
# [3] = Elagolix apparent terminal phase elimination half-life; settings: human, in vivo; read-out: apparent terminal phase elimination half-life (t1/2)
# [4] = target: T1, rat gonadotropin-releasing hormone (GnRH) receptor (Rattus norvegicus, UniProt P30969); test: Binding to rat versus human GnRH receptor; settings: rat vs human GnRH receptor
# T1 sequence (P30969 1-327): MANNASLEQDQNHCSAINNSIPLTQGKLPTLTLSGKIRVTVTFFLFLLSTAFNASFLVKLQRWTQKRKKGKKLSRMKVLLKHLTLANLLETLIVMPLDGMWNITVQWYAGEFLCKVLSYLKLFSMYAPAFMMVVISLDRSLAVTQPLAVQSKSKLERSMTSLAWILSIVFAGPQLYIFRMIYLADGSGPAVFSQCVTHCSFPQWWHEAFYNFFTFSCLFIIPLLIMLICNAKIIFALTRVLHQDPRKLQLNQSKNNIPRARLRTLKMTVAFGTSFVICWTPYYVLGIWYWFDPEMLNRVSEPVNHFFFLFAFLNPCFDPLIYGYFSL
# CYP2C19 = CYP2C19 (Homo sapiens, UniProt P33261); test: In vitro studies: CYP2C19 inhibition; format: in vitro ADME
# P-gp = P-gp (Homo sapiens, UniProt P08183); test: Substrate of P-gp; format: in vitro ADME
# CYP3A4 = test: In vitro studies: CYP3A induction; format: in vitro ADME
# OATP1B1 = target: T2, OATP1B1 (Homo sapiens, UniProt Q9Y6L6); test: Substrate of OATP1B1; format: in vitro ADME
# T2 sequence (Q9Y6L6 1-691): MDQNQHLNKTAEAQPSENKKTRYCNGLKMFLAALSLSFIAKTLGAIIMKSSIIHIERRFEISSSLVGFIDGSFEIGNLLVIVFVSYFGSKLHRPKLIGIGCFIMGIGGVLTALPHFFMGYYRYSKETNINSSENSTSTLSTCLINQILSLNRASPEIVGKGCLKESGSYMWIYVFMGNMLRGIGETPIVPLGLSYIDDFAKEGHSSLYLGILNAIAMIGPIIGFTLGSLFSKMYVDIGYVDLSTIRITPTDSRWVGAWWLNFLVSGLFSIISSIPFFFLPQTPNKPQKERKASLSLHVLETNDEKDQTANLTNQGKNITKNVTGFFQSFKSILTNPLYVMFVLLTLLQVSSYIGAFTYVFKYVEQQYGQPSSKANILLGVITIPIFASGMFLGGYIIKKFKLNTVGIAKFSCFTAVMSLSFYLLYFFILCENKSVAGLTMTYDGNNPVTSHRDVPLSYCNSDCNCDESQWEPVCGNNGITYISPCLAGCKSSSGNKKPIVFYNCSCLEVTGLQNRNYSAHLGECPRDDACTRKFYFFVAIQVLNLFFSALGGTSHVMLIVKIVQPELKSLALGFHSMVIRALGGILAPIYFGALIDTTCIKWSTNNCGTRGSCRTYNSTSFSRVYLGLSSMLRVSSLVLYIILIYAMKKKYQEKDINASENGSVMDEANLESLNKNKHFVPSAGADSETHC
# [5] = Pre- and postnatal development study in rats; format: in vivo, rat; settings: for maternal plasma concentration relative to maximal elagolix concentration (Cmax) in humans at the MRHD: lactation day 21
# Experimental: In a pre- and postnatal development study in rats, elagolix was given in the diet to achieve doses of 0, 100 and 300 mg/kg/day (25 per dose group) from gestation day 6 to lactation day 20. […] Pup survival was decreased from birth to postnatal day 4. […] Smaller body size and effect on startle response were associated with lower pup weights at 300 mg/kg/day. Post-weaning growth, development and behavioral endpoints were unaffected.
# [6] = Embryofetal development study in the rabbit
# Experimental: as §1
# CYP3A = test: Substrate of / metabolism by CYP3A; format: in vitro ADME
# [7] = target: efflux transporter P-glycoprotein (P-gp) (Homo sapiens, UniProt P08183); test: P-glycoprotein inhibition; format: in vitro ADME
# [8] = Drug-drug interaction study: effect of multiple doses of elagolix sodium on pharmacokinetics of bupropion (CYP2B6 substrate) and OH-bupropion
# Experimental: Subjects: Twenty four (24) adult premenopausal women in generally good health participated in this study.
# Elagolix 300 mg BID (as 300 mg immediate release tablets) was administered in the morning and evening on days 1 through 14 in period 2. […] No food was consumed for 2 hours prior to the evening doses of elagolix continuing through 2 hours after. The doses of elagolix were separated by approximately 12 hours.
# Individual PK parameters (peak concentration [Cmax] and area under the concentration-time curve [AUC]) were estimated using noncompartmental methods.
# Central value ratios (90% confidence intervals) for Cmax, AUC, and metabolite to parent ratios (MPRs) (day 11, period 2 vs. day 1, period 1) were calculated to assess the DDIs. Safety was evaluated through assessment of adverse events, vital signs, electrocardiogram, and clinical laboratory tests.
# Adverse events (AEs) were monitored throughout the DDI study. Additional safety evaluations included monitoring of physical examinations, vital signs, electrocardiogram variables, and clinical laboratory values were assessed
# [9] = pregnant rabbits, 150 mg/kg/day
# Chain of CYP2C19 (P33261 whole entry): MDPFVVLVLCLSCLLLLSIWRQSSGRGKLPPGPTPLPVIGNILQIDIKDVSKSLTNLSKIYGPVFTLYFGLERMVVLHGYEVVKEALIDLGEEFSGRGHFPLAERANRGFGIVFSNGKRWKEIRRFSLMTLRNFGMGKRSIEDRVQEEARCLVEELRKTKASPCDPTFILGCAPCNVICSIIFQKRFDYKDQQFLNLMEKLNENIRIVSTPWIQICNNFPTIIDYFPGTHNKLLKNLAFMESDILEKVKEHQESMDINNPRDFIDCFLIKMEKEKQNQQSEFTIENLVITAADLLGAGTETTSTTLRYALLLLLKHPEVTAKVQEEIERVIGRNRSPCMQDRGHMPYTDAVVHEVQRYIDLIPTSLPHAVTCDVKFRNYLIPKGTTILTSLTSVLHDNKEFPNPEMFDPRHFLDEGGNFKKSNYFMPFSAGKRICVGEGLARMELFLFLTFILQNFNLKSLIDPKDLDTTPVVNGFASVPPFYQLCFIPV
# Chain of efflux transporter P-glycoprotein (P-gp) (P08183 whole entry): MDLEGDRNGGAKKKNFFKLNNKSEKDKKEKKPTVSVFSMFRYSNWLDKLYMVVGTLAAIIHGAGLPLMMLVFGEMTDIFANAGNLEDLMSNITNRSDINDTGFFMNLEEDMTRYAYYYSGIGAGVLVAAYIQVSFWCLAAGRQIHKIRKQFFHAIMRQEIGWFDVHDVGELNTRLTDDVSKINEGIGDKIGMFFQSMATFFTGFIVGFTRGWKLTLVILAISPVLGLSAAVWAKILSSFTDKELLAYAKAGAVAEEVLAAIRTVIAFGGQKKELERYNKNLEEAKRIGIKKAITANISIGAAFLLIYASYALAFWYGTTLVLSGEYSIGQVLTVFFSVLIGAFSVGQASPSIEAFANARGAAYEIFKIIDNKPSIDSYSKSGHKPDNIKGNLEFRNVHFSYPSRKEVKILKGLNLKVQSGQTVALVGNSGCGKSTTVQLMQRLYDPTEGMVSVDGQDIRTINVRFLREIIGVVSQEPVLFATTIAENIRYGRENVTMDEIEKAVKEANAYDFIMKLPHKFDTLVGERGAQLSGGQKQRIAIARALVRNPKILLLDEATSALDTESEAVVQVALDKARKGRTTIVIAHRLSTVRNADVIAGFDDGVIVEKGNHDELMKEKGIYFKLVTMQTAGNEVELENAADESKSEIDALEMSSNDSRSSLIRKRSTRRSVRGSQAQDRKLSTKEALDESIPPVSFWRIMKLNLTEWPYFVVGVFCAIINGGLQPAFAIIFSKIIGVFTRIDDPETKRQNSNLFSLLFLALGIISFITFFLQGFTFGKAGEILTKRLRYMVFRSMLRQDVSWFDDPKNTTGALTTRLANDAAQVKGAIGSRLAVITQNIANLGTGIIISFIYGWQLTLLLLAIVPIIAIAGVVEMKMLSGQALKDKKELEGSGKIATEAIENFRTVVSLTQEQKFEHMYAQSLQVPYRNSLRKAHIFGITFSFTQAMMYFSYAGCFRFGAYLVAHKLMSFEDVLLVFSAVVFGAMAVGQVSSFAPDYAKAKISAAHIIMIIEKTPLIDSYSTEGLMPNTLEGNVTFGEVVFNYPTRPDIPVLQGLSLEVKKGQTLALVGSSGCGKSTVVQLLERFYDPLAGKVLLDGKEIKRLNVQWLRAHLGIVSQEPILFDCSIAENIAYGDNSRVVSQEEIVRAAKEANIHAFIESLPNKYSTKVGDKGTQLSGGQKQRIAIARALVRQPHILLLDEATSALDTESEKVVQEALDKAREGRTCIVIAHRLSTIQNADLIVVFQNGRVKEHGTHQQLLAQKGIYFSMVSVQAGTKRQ
# Chain of P-gp (P08183 whole entry): as above
smiles,measurement,setting,value
"COc1cccc(-c2c(C)n(Cc3c(F)cccc3C(F)(F)F)c(=O)n(C[C@H](NCCCC(=O)O)c3ccccc3)c2=O)c1F [elagolix, 4-((R)-2-[5-(2-fluoro-3-methoxy-phenyl)-3-(2-fluoro-6-trifluoromethyl-benzyl)-4-methyl-2,6-dioxo-3,6-dihydro-2H-pyrimidin-1-yl]-1-phenyl-ethylamino)-butyric acid]",tolerability of co-administration of elagolix and EE/LNG,[1],generally well tolerated
same,"dose with increased post implantation losses, as multiple of the MRHD based on AUC","[2]; pregnant rats, mid dose group",12 times the MRHD
same,maternal deaths,"[2]; pregnant rats, oral gavage 300, 600 and 1200 mg/kg/day",six deaths
same,fetal malformations / structural abnormalities,"[2]; rat, any dose level tested",no structural abnormalities; also recorded: No fetal malformations
same,half-life,[3],4 to 6 h
same,"binding to the rat GnRH receptor, fold less than to the human GnRH receptor",[4],~1000 fold
same,inhibitor of CYP2C19,CYP2C19,weak inhibitor
same,substrate of P-gp,P-gp,substrate
same,inducer of CYP3A4 / cytochrome P450 (CYP) 3A,CYP3A4,weak to moderate inducer
same,substrate of OATP1B1,OATP1B1,substrate
same,"post-weaning growth, development and behavioral endpoints",[5],unaffected
same,maternal plasma concentration relative to maximal elagolix concentration (Cmax) in humans at the MRHD,[5]; 100 mg/kg/day,0.04 fold
same,litter findings at the highest dose,[5]; 300 mg/kg/day,"two dams had total litter loss, and one failed to deliver"
same,maternal plasma concentration relative to maximal elagolix concentration (Cmax) in humans at the MRHD,[5]; 300 mg/kg/day,0.1 fold
same,pup birth weights and body weight gains,"[5]; 300 mg/kg/day, pre-weaning period",lower birth weights and lower body weight gains
same,pup survival from birth to postnatal day 4,[5]; highest dose,decreased
same,"highest, maternally toxic dose with spontaneous abortions and total litter loss, as multiple of the MRHD based on AUC",[6]; pregnant rabbits,7 times the MRHD
same,findings at lower non-maternally toxic dose,[6]; [9],A single total litter loss
same,"non-maternally toxic dose with total litter loss, as multiple of the MRHD",[6]; [9],4 times the MRHD
same,"findings at the highest, maternally toxic dose","[6]; pregnant rabbits, oral gavage, gestation day 7-20",three spontaneous abortions and a single total litter loss
same,fetal malformations / structural abnormalities,"[6]; rabbit, any dose level tested",no structural abnormalities; also recorded: No fetal malformations
same,substrate of CYP3A,CYP3A,substrate
same,inhibitor of efflux transporter P-glycoprotein (P-gp),[7],inhibitor
same,CYP2B6 induction in the healthy volunteer study,[8]; elagolix 300 mg BID for 10 days,did not induce CYP2B6
same,tolerability of co-administration of elagolix and bupropion,[8]; healthy premenopausal female subjects,generally well tolerated
